# Source: patent publication US6492404B1, “Thiazolylcinnamonitriles and pest controlling agents” (Nippon Soda Co., Ltd., priority 1998, dated 2002)
# Test system: Pseudaletia separata Walker
# Test: Effects on Pseudaletia separata Walker (corn leaf immersion, third instar larvae)
# Type: in vivo
# Settings: wettable powder diluted to 125 ppm, corn leaves immersed 30 seconds, 25° C., 65% RH, assessed 6 days after treatment
# Method: Effects on Pseudaletia separata Walker
# According to the instructions of the wettable powder described in the above Example 2, a wettable powder was diluted with water to make the compound concentration 125 ppm. Corn leaves were immersed in the solution for 30 seconds, air-dried and placed in a Petri dish containing 5 third instar larvae of Pseudaletia separata Walker. The dish was covered with a glass lid and placed in a thermostatic chamber of temperature of 25° C. and relative humidity of 65%. Mortality was assessed 6 days after treatment. Each test was replicated twice.
structure (smiles),measurement,value
Cc1cc(Cl)ccc1N=CN(C)C [Chlordimeform],mortality,40%
